Here are results for 19 molecules from patent US10227342B2 (ARIAD PHARMACEUTICALS, INC., priority 2014, dated 2019).

In general, IC50 refers to the point on the concentration scale where inhibition reaches its midpoint.

Holding throughout (assay type): cell-based
Assay [1] has as its target Her2 exon 20 YVMA insertion (A775_G776ins YVMA) (Homo sapiens (Human), UniProt P04626, INS775YVMA). Put plainly: Ba/F3-Her2 Exon20 YVMA cell anti-proliferative assay (CellTiter 96 MTS, 72 h). The settings on record: Ba/F3-Her2 Exon20 YVMA cells. The text has this:
Ba/F3 cells expressing Her2 Exon20 YVMA insertions (named Ba/F3-Her2 Exon20 YVMA) can proliferate in the absence of IL-3.

Assay [2] has as its target human EGFR exon 20 insertion NPG (H773_V774insNPG) (Homo sapiens, UniProt P00533, INS773NPG, cells depend on it). Put plainly: Ba/F3-EGFR-Exon20-NPG cell anti-proliferative assay (CellTiter 96 MTS, 72 h). The settings on record: read-out: EGFR exon 20 NPG insertion IC50.
Protocol: (§1) Ba/F3 cells expressing EGFR exon 20 insertions (named Ba/F3-EGFR-Exon20-NPG or Ba/F3-EGFR-Exon20-ASV) can proliferate in the absence of IL-3. The anti-proliferative activity of compounds were determined as follows: BaF3-EGFR-Exon20 cells (NPG or ASV) seeded in 96 well plates (2500 cells/well) were treated with test compound (dissolved in DMSO) at a series of concentrations (4-fold dilution, top concentration: 10,000 nM). The plates were incubated for 72 h in a 37° C. incubator with 5% CO2, and the number of viable cells in each well were measured indirectly by CellTiter 96® Aqueous One Solution Cell Proliferation Assay (Promega) This assay is a colorimetric method for determining the number of viable cells through measurement of their metabolic activity by detection of enzymatic conversion of tetrazolium salts into blue formazan derivatives. Reagent (20 μL) was added into each well, and the plates were returned to the incubator for 2 h. The absorbance in each well was then measured at 490 nm using an Envision plate reader (Perkin Elmer).
The target in assay [3] is human EGFR E746-A750 deletion and T790M Mutation (DT) (Homo sapiens (Human), UniProt P00533, DEL746-750/T790M). Put plainly: Ba/F3-EGFR-Del/T790M cell anti-proliferative assay (CellTiter 96 MTS, 72 h). The settings on record: Ba/F3-EGFR-Del/T790M cells; for IC50: read-out: EGFR exon 19 deletion and T790M mutation IC50.
Assay [4] has as its target human EGFR exon 20 insertion ASV (V769_D770insASV) (Homo sapiens (Human), UniProt P00533, INS769ASV). The experiment in a line: Ba/F3-EGFR-Exon20-ASV cell anti-proliferative assay (CellTiter 96 MTS, 72 h).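 Note: Ba/F3 cells bearing the EGFR exon 20 ASV insertion, a line able to proliferate without IL-3.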 The conditions noted are these: Ba/F3-EGFR-Exon20-ASV cells.
Protocol: as §1

Sequence of human EGFR E746-A750 deletion and T790M Mutation (DT) (P00533 other isoform, or with tags, fused parts or gaps T790M/del E746-A750): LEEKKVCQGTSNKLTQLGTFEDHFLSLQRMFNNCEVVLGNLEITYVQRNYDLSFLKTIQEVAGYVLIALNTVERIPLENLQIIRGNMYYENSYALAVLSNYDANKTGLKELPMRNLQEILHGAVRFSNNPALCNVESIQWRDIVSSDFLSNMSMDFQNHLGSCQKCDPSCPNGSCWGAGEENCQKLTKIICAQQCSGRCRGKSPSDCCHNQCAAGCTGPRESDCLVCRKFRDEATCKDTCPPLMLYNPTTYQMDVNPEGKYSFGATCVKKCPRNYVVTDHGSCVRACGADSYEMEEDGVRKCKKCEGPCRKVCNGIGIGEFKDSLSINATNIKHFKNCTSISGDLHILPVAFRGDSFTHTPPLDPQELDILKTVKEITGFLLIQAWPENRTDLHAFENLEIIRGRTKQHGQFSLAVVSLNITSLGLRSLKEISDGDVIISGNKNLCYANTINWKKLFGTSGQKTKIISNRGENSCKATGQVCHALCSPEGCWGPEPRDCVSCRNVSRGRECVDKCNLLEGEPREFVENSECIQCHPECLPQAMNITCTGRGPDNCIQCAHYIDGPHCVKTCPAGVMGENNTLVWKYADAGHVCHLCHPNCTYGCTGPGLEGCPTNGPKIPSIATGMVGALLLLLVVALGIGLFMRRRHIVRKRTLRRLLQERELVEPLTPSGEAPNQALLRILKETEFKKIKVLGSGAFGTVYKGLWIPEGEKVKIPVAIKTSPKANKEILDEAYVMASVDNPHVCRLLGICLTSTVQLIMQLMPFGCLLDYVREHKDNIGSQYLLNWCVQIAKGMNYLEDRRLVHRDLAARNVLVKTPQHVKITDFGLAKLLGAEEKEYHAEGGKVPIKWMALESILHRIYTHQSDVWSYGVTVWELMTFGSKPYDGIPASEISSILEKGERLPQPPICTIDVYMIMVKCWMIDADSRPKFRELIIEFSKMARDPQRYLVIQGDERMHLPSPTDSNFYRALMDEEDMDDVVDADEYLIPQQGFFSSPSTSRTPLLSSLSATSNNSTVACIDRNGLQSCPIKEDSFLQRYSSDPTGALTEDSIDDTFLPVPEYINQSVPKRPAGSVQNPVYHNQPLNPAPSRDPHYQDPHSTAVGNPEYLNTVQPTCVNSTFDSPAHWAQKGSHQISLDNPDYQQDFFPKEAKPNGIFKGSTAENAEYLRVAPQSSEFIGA
Sequence of human EGFR exon 20 insertion NPG (H773_V774insNPG) (P00533 with tags, fused parts or gaps INS773NPG limits assumed): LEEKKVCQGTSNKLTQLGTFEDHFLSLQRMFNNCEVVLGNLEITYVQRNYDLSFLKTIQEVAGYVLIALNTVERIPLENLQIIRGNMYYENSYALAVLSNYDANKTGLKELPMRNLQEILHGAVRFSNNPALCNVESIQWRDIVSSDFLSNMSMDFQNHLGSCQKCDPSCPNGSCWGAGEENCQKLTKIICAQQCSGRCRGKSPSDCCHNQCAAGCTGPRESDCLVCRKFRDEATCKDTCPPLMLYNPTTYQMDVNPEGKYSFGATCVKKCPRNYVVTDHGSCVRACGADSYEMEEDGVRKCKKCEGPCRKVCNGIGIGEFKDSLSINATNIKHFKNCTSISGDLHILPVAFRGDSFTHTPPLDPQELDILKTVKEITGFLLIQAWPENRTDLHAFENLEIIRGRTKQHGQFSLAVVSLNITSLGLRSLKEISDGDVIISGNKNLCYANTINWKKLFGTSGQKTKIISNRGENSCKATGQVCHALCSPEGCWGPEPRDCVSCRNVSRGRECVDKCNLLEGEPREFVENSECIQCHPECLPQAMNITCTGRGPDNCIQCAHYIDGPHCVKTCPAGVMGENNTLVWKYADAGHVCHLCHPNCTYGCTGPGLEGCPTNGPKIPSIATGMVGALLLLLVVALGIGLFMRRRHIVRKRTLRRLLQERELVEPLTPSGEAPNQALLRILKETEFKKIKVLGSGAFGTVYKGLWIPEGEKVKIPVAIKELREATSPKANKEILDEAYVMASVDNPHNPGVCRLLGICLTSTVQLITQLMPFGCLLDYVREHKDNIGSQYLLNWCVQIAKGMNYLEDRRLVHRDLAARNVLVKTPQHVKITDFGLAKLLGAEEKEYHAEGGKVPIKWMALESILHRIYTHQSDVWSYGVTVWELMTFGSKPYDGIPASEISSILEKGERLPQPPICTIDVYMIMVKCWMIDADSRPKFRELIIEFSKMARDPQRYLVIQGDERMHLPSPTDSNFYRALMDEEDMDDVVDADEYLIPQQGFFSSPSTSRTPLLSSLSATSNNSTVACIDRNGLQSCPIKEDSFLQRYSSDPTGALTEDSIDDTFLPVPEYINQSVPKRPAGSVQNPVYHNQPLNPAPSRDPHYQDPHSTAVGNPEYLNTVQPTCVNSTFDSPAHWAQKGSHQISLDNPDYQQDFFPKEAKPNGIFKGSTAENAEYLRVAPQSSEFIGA
Sequence of human EGFR exon 20 insertion ASV (V769_D770insASV) (P00533 other isoform, or with tags, fused parts or gaps ins ASV behind 769): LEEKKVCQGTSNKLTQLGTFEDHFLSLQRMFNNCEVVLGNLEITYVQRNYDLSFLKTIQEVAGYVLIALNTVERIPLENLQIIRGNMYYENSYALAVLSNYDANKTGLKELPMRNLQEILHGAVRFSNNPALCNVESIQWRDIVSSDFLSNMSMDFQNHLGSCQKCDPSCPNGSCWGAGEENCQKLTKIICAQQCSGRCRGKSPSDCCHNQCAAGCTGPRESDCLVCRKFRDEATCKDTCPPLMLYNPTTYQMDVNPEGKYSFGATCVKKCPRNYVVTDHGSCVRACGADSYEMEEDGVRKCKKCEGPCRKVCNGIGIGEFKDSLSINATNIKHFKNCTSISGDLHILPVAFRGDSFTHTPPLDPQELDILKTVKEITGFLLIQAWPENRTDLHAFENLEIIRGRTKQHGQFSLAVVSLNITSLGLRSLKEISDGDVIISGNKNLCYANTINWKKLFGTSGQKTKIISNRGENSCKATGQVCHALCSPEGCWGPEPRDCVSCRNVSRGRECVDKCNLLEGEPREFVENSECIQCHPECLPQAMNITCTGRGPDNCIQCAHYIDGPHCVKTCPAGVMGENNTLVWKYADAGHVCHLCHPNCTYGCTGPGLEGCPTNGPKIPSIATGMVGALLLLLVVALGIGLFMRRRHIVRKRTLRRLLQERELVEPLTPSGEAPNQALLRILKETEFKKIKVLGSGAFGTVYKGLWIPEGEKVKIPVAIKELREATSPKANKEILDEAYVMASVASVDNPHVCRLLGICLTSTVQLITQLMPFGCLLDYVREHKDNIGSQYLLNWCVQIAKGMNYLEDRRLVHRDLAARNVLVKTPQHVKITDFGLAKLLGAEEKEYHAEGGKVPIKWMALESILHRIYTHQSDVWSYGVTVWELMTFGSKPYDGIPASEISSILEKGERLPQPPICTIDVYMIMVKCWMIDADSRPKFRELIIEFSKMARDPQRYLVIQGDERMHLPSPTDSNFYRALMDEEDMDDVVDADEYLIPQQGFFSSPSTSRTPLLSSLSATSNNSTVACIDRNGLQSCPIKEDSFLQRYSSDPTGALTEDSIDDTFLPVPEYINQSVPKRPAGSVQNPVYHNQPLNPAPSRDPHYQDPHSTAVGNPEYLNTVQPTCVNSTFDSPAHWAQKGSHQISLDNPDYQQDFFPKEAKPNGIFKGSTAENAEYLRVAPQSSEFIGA
Sequence of Her2 exon 20 YVMA insertion (A775_G776ins YVMA) (P04626 other isoform, or with tags, fused parts or gaps ins YVMA behind 775): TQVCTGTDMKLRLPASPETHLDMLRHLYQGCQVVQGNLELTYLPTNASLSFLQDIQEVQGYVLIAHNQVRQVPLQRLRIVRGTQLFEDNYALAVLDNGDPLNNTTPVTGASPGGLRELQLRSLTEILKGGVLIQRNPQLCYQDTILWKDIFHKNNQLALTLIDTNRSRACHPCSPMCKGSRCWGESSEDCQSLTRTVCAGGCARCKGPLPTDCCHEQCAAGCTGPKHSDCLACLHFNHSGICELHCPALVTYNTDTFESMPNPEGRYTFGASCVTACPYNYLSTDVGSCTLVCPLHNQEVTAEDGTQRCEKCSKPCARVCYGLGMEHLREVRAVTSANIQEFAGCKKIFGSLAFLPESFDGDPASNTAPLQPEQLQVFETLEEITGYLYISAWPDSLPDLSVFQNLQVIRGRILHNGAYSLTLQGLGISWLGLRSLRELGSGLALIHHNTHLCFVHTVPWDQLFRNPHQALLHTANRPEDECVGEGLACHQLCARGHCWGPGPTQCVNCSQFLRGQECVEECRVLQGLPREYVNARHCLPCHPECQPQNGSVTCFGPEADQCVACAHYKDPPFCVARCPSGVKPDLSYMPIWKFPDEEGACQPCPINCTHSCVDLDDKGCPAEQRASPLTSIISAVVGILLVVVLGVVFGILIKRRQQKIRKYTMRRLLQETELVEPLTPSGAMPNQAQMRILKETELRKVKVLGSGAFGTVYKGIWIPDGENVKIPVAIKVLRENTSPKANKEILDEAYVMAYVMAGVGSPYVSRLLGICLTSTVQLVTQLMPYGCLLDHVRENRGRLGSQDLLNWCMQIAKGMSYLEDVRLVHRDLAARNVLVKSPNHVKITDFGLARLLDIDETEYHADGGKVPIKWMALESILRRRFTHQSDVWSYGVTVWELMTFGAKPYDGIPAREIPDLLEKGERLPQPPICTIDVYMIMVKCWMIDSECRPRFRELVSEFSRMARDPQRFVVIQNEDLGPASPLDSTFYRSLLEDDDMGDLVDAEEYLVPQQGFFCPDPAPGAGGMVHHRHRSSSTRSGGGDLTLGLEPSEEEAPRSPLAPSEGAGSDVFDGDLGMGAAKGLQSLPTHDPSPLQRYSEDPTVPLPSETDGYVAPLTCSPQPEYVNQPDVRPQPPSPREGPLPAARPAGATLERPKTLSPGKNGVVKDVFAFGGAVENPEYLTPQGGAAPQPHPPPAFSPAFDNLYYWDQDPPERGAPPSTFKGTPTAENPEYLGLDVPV

For `C=CC(=O)Nc1cc(Nc2ncc(C(=O)OCC3CC3)c(-c3cn(C)c4ccccc34)n2)c(OC)cc1N(C)CCN(C)C` [Example 13, cyclopropylmethyl 2-((5-acrylamido-4-((2-(dimethylamino)ethyl)(methyl)amino)-2-methoxyphenyl)amino)-4-(1-methyl-1H-indol-3-yl)pyrimidine-5-carboxylate], the IC50 in assay [1], in assay [2], in assay [3] and in assay [4] was less than 0.1 µM throughout.

Regarding `C=CC(=O)Nc1cc(Nc2ncc(C(=O)OC3CCC3)c(-c3cn(C)c4ccccc34)n2)c(OC)cc1N(C)CCN(C)C` [Example 14, cyclobutyl 2-((5-acrylamido-4-((2-(dimethylamino)ethyl)(methyl)amino)-2-methoxyphenyl)amino)-4-(1-methyl-1H-indol-3-yl)pyrimidine-5-carboxylate], the IC50 in assay [1], in assay [2], in assay [3] and in assay [4] was less than 0.1 µM throughout.

On to `C=CC(=O)Nc1cc(Nc2ncc(C(=O)OC(C)C)c(-n3ccc4ccccc43)n2)c(OC)cc1N(C)CCN(C)C` [Example 15, isopropyl 2-((5-acrylamido-4-((2-(dimethylamino)ethyl)(methyl)amino)-2-methoxyphenyl)amino)-4-(1H-indol-1-yl)pyrimidine-5-carboxylate], for which the IC50 in assay [1], in assay [2], in assay [3] and in assay [4] was less than 0.1 µM each time.

With `C=CC(=O)Nc1cc(Nc2ncc(C(=O)OC)c(-c3cn(C)c4ccccc34)n2)c(OC)cc1N(C)CC1CCCN1C` (stereo not shown) [Example 16, methyl 2-((5-acrylamido-2-methoxy-4-(methyl((1-methylpyrrolidin-2-yl)methyl)amino)phenyl)amino)-4-(1-methyl-1H-indol-3-yl)pyrimidine-5-carboxylate], the 50% inhibitory concentration (IC50) in assay [1] was 0.1 to 0.5 µM; in assay [2], less than 0.1 µM; in assay [3], less than 0.1 µM; in assay [4], less than 0.1 µM.

As for `C=CC(=O)Nc1ccc(OC)c(Nc2ncc(Cl)c(-c3cn(C)c4cc(OCCN5CCN(C)CC5)ccc34)n2)c1` [Example 18, N-(3-((5-chloro-4-(1-methyl-6-(2-(4-methylpiperazin-1-yl)ethoxy)-1H-indol-3-yl)pyrimidin-2-yl)amino)-4-methoxyphenyl)acrylamide], the IC50 in assay [1] is more than 1 µM; in assay [2], 0.1 to 0.5 µM; in assay [3], less than 0.1 µM; in assay [4], more than 1 µM.

`C=CC(=O)Nc1ccc(OC)c(Nc2ncc(C#N)c(-c3cn(C)c4cc(OCCCN(C)C)ccc34)n2)c1` [Example 19, N-(3-((5-cyano-4-(6-(3-(dimethylamino)propoxy)-1-methyl-1H-indol-3-yl)pyrimidin-2-yl)amino)-4-methoxyphenyl)acrylamide]: the IC50 in assay [1] is 0.5 to 1 µM; in assay [2] it was less than 0.1 µM; in assay [3] it was less than 0.1 µM; in assay [4], 0.1 to 0.5 µM.

Regarding `C=CC(=O)Nc1ccc(OC)c(Nc2ncc(C#N)c(-c3cn(C)c4cc(OCCN5CCCC5)ccc34)n2)c1` [Example 20, N-(3-((5-cyano-4-(1-methyl-6-(2-(pyrrolidin-1-yl)ethoxy)-1H-indol-3-yl)pyrimidin-2-yl)amino)-4-methoxyphenyl)acrylamide], the IC50 is 0.5 to 1 µM in assay [1], less than 0.1 µM in assay [2], less than 0.1 µM in assay [3] and 0.1 to 0.5 µM in assay [4].

For `C=CC(=O)Nc1ccc(OC)c(Nc2ncc(C#N)c(-c3cn(C)c4cc(OCC5CCCN5C)ccc34)n2)c1` (stereo not shown) [Example 21, N-(3-((5-cyano-4-(1-methyl-6-((1-methylpyrrolidin-2-yl)methoxy)-1H-indol-3-yl)pyrimidin-2-yl)amino)-4-methoxyphenyl)acrylamide], the IC50 in assay [1] is 0.5 to 1 µM; in assay [2], less than 0.1 µM; in assay [3], less than 0.1 µM; in assay [4], 0.5 to 1 µM.

`C=CC(=O)Nc1ccc(OC)c(Nc2ncc(Cl)c(-c3c[nH]c4cc(OCCN5CCCC5)ccc34)n2)c1` [Example 22, N-(3-((5-chloro-4-(6-(2-(pyrrolidin-1-yl)ethoxy)-1H-indol-3-yl)pyrimidin-2-yl)amino)-4-methoxyphenyl)acrylamide]: the IC50 in assay [1] is 0.1 to 0.5 µM; in assay [2], less than 0.1 µM; in assay [3] it was less than 0.1 µM; in assay [4], 0.1 to 0.5 µM.

Turning to `C=CC(=O)Nc1ccc(OC)c(Nc2ncc(C#N)c(-c3cn(C)c4cc(OCCC5CCCN5C)ccc34)n2)c1` (stereo not shown) [Example 23, N-(3-((5-cyano-4-(1-methyl-6-(2-(1-methylpyrrolidin-2-yl)ethoxy)-1H-indol-3-yl)pyrimidin-2-yl)amino)-4-methoxyphenyl)acrylamide], the IC50 was 0.5 to 1 µM in assay [1], less than 0.1 µM in assay [2], less than 0.1 µM in assay [3] and 0.1 to 0.5 µM in assay [4].

Consider `C=CC(=O)Nc1cc(Nc2ncc(C(=O)OCC(C)C)c(-c3cn(C)c4ccccc34)n2)c(OC)cc1N(C)CCN(C)C` [Example 28, isobutyl 2-((5-acrylamido-4-((2-(dimethylamino)ethyl)(methyl)amino)-2-methoxyphenyl)amino)-4-(1-methyl-1H-indol-3-yl)pyrimidine-5-carboxylate], for which the IC50 in assay [1] is 0.1 to 0.5 µM; in assay [2], less than 0.1 µM; in assay [3], less than 0.1 µM; in assay [4], less than 0.1 µM.

On to `C=CC(=O)Nc1cc(Nc2ncc(C(=O)OC(C)CC)c(-c3cn(C)c4ccccc34)n2)c(OC)cc1N(C)CCN(C)C` (stereo not shown) [Example 29, sec-butyl 2-((5-acrylamido-4-((2-(dimethylamino)ethyl)(methyl)amino)-2-methoxyphenyl)amino)-4-(1-methyl-1H-indol-3-yl)pyrimidine-5-carboxylate], for which the IC50 in assay [1], in assay [2], in assay [3] and in assay [4] was less than 0.1 µM throughout.

Turning to `C=CC(=O)Nc1cc(Nc2ncc(C(=O)OC(C)C)c(-c3cn(C)c4c(OC)cccc34)n2)c(OC)cc1N(C)CCN(C)C` [Example 31, isopropyl 2-((5-acrylamido-4-((2-(dimethylamino)ethyl)(methyl)amino)-2-methoxyphenyl)amino)-4-(7-methoxy-1-methyl-1H-indol-3-yl)pyrimidine-5-carboxylate], the IC50 in assay [1], in assay [2], in assay [3] and in assay [4] was less than 0.1 µM throughout.

With `C=CC(=O)Nc1cc(Nc2ncc(C(=O)OC(C)C)c(-c3cnn4ccccc34)n2)c(OC)cc1N(C)CCN(C)C` [Example 32, isopropyl 2-((5-acrylamido-4-((2-(dimethylamino)ethyl)(methyl)amino)-2-methoxyphenyl)amino)-4-(pyrazolo[1,5-a]pyridin-3-yl)pyrimidine-5-carboxylate], the IC50 in assay [1], in assay [2], in assay [3] and in assay [4] was less than 0.1 µM in each case.

On to `C=CC(=O)Nc1cc(Nc2ncc(C(=O)O[C@@H]3CCOC3)c(-c3cn(C)c4ccccc34)n2)c(OC)cc1N(C)CCN(C)C` [Example 37, (R)-tetrahydrofuran-3-yl 2-((5-acrylamido-4-((2-(dimethylamino)ethyl)-(methyl)amino)-2-methoxyphenyl)amino)-4-(1-methyl-1H-indol-3-yl)pyrimidine-5-carboxylate], for which the IC50 is 0.1 to 0.5 µM in assay [1], less than 0.1 µM in assay [2], less than 0.1 µM in assay [3] and less than 0.1 µM in assay [4].

In the case of `C=CC(=O)Nc1cc(Nc2ncc(C(=O)OCC#N)c(-c3cn(C)c4ccccc34)n2)c(OC)cc1N(C)CCN(C)C` [Example 38, cyanomethyl 2-((5-acrylamido-4-((2-(dimethylamino)ethyl)(methyl)amino)-2-methoxyphenyl)amino)-4-(1-methyl-1H-indol-3-yl)pyrimidine-5-carboxylate], the IC50 in assay [1], in assay [2], in assay [3] and in assay [4] was less than 0.1 µM throughout.

Regarding `C=CC(=O)Nc1cc(Nc2ncc(NC(=O)C(C)C)c(-c3cn(C)c4ccccc34)n2)c(OC)cc1N(C)CCN(C)C` [Example 39, N-(2-((2-(dimethylamino)ethyl)-(methyl)amino)-5-((5-isobutyramido-4-(1-methyl-1H-indol-3-yl)pyrimidin-2-yl)amino)-4-methoxyphenyl)-acrylamide], the IC50 in assay [1] is more than 1 µM; in assay [2] it was less than 0.1 µM; in assay [3], more than 1 µM; in assay [4], 0.1 to 0.5 µM.

As to `C=CC(=O)Nc1cc(Nc2ncc(N(C)C(=O)C(C)C)c(-c3cn(C)c4ccccc34)n2)c(OC)cc1N(C)CCN(C)C` [Example 40, N-(2-((2-(dimethylamino)ethyl)-(methyl)-amino)-4-methoxy-5-((4-(1-methyl-1H-indol-3-yl)-5-(N-methylisobutyramido)-pyrimidin-2-yl)amino)phenyl)acrylamide], the IC50 was more than 1 µM in assay [1], 0.1 to 0.5 µM in assay [2] and 0.1 to 0.5 µM in assay [4]. The “EGFR exon 19 deletion and T790M mutation IC50” value in assay [3] is “C (Group C compounds have an IC50 value for the indicated mutant between greater than about 500 to about 1 μM)”.

Regarding `C=CC(=O)Nc1cc(Nc2ncc(NC(=O)C(C)(C)C)c(-c3cn(C)c4ccccc34)n2)c(OC)cc1N(C)CCN(C)C` [Example 41, N-(2-((2-(dimethylamino)ethyl)-(methyl)amino)-4-methoxy-5-((4-(1-methyl-1H-indol-3-yl)-5-pivalamidopyrimidin-2-yl)amino)phenyl)acrylamide], the IC50 in assay [1] is more than 1 µM; in assay [2], 0.1 to 0.5 µM; in assay [3] it was more than 1 µM; in assay [4], 0.5 to 1 µM.
